Results on seven molecules are retold here after publication PMC9821843, “Powerful Potential of Polyfluoroalkyl-Containing 4-Arylhydrazinylidenepyrazol-3-ones for Pharmaceuticals” (Molecules, 2022).

Data set [1] has as its target porcine liver carboxylesterase (CES, EC 3.1.1.1) (Sus scrofa, UniProt Q29550). The data set is described as follows: Inhibition of porcine liver carboxylesterase (4-NPA colorimetric assay). Format: biochemical. Particulars: 20 µM; n.a. = inactive at 20 µM; mean ± SEM, n = 3. The text has this:
(§1) The following enzymes were purchased from Sigma-Aldrich (Saint Louis, MO, USA): porcine liver carboxylesterase (CES, EC 3.1.1.1), human erythrocyte acetylcholinesterase (AChE, EC 3.1.1.7) and equine serum butyrylcholinesterase (BChE, EC 3.1.1.8). Substrates for CES, AChE and BChE were 4-nitrophenyl acetate (4-NPA), acetylthiocholine iodide (ATCh) and butyrylthiocholine iodide (BTCh), respectively, and the colorimetric reagent for the AChE and BChE assays was 5,5’-dithio-bis-(2-nitrobenzoic acid) (DTNB) (Sigma-Aldrich). All the kinetic experiments were performed under standard conditions, according to the protocol of IPAC RAS for a reversible inhibitors study.
The CES (porcine liver) activity was assessed colorimetrically in 0.1 M K/Na phosphate buffer pH 8.0, 25 °C, by measuring the absorbance of 4-nitrophenol at 405 nm. Final enzyme and substrate (4-NPA) concentrations were 0.02 unit/mL and 1 mM, respectively. Reagent blanks included all constituents except enzyme.
Test compounds were dissolved in DMSO. Reaction mixtures contained a final DMSO concentration of 2% (v/v). Enzyme inhibition was first assessed at a single concentration of 20 µM for each compound after a 5 min incubation at 25 °C in three separate experiments. […] Substrate was then added and residual enzyme activity relative to an inhibitor-free control was measured using a Bio-Rad Benchmark Plus microplate reader (Marnes-la-Coquette, France).
Measurements were performed in a Bio-Rad Benchmark Plus microplate reader. Each experiment was performed in triplicate. Plots, linear regressions and values of IC50, were determined using Origin 6.1 for Windows, OriginLab (Northampton, MA, USA). Results were calculated using GraphPad Prism version 6.05 for Windows, GraphPad Software (La Jolla, CA, USA) and presented as mean ± SEM.

Data set [2] addresses T1, human erythrocyte acetylcholinesterase (AChE, EC 3.1.1.7) (Homo sapiens, UniProt P22303).
T1 construct: human erythrocyte acetylcholinesterase (AChE, EC 3.1.1.7); purchased Sigma-Aldrich (Saint Louis, MO, USA); host or cells: human erythrocytes
The data set is described as follows: Inhibition of human erythrocyte acetylcholinesterase (Ellman assay). The format is biochemical. Particulars: read-out: Inhibition % at 20 µM, Human AChE.
From the text: as §1
Reagent blanks consisted of reaction mixtures without enzyme to assess non-enzymatic hydrolysis of substrates.
Test compounds were dissolved in DMSO. Reaction mixtures contained a final DMSO concentration of 2% (v/v). […] Measurements were performed in a Bio-Rad Benchmark Plus microplate reader. Each experiment was performed in triplicate. Plots, linear regressions and values of IC50, were determined using Origin 6.1 for Windows, OriginLab (Northampton, MA, USA).
(In general: Ellman's reagent forms a yellow product with free thiols.)

Data set [3] deals with T2, equine serum butyrylcholinesterase (BChE, EC 3.1.1.8) (Equus caballus, UniProt P81908).
T2 construct: equine serum butyrylcholinesterase (BChE, EC 3.1.1.8); purchased Sigma-Aldrich (Saint Louis, MO, USA); host or cells: equine serum
Description: Inhibition of equine serum butyrylcholinesterase (Ellman assay). Format: biochemical. The settings on record: read-out: Inhibition % at 20 µM, Equine BChE. The method, boiled down:
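Ellman colorimetric assay with 0.02 unit/mL BChE, 1 mM butyrylthiocholine iodide and 0.33 mM DTNB, 2% (v/v) DMSO final; substrate added after enzyme-compound mixing. Residual activity versus inhibitor-free control, blanks without enzyme; triplicates, IC50 by linear regression.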

Data set [4] can be described thus: Oxygen radical absorbance capacity (ORAC-FL) assay. Particulars: n.a. = inactive; i.t.s. = interferes with test system. Summed up:
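Fluorescein oxidative degradation by the peroxyl radical generator AAPH is monitored in the presence of test compound, a HAT-based read-out. Activity is expressed relative to Trolox as reference antioxidant.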

Data set [5] concerns Neisseria gonorrhoeae ATCC 49226/NCTC 12700. The data set is described as follows: Antibacterial activity against Neisseria gonorrhoeae. The format is cell-based. Particulars: read-out: MIC against Neisseria gonorrhoeae.
Data set [6] is described as follows: Acute toxicity evaluation in mice (ip). The settings on record: CD-1, mouse, in vivo, 300 mg/kg. The protocol: The toxicity evaluation was performed on CD-1 mice. […] The tested compounds in 1% starch mucilage were injected intraperitoneally into three mice. Then, animals were observed during 14 days, the number of deaths was counted and % of viability calculated.

In the next data set the test system is Sprague-Dawley (SD) rats. The data set is described as follows: Hot plate test (analgesic activity). Particulars: ip; for change in vivo at 15 mg/kg: Rattus norvegicus. Format: in vivo. Summed up: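 Test compounds were given i.p. as suspensions in 1% starch mucilage to SD rats (3 male, 3 female per group), vehicle as negative control. At 1 and 2 h post-dose, latency to nociceptive response (jumping, hind paw licking/shaking) on a 50 °C plate was recorded, 30 s cutoff.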
A general note: Hot-plate and tail-flick tests time the reaction to a heat stimulus.

For data set [7], the system named is Microsporum canis RCPF F 1643/1585. The data set is described as follows: Antifungal susceptibility testing, M. canis. Particulars: Microsporum canis, RCPFF1643/1585, read-out: MIC for fungi strains inhibition, M. canis.
From the text: (§3) The solvent was DMSO. […] In each test, a growth control and a sterility control were used.
Data set [8] relates to Trichophyton rubrum RCPF F 1408. Description: Antifungal susceptibility testing, T. rubrum. The settings on record: Trichophyton rubrum, RCPFF1408, read-out: MIC for fungi strains inhibition, T. rubrum.
From the text: as §3
Data set [9] deals with Candida albicans RCPF Y 401/NCTC 885/653. The data set is described as follows: Antifungal susceptibility testing, C. albicans. Particulars: NCTC885, read-out: MIC for fungi strains inhibition, C. albicans.
From the text: as §3
The subject of data set [10] is Epidermophyton floccosum RCPF F 1659/17. The data set is described as follows: Antifungal susceptibility testing, E. floccosum. Particulars: Epidermophyton floccosum, RCPFF1659/17, read-out: MIC for fungi strains inhibition, E. floccosum.
From the text: as §3
Data set [11] in a line: ABTS radical cation scavenging activity assay. Particulars: mean ± SEM. Summed up: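 ABTS•+ (from 7 mM ABTS plus 2.45 mM persulfate) mixed with compound, 5 × 10^–7–4 × 10^–4 M, 1 h at 30 °C; absorbance decrease read at 734 nm. TEAC from slope ratio versus Trolox; IC50 as 50% radical reduction for compounds exceeding 60% reduction at 100 µM.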
The next data set has as its system HeLa tumor cell line. The data set is described as follows: Cytotoxicity against HeLa cells (MTT assay). The format is cell-based, human. Particulars: Homo sapiens, HeLa, 72 h, read-out: IC50, HeLa. The protocol:
(§2) Cytotoxicity of compounds was evaluated using a culture of human dermal fibroblasts, which were isolated in the Laboratory of Cell Cultures of the Institute of Medical Cell Technologies, Ekaterinburg, Russia and a HeLa tumor cell line obtained at the shared research facility «Vertebrate cell culture collection» of the Institute of Cytology of the Russian Academy of Sciences, St. Petersburg, Russia. Cells were seeded in 96-well plates in the inoculum dose of 2 × 10^5 cells/mL and cultured for 24 h in DMEM, with 1% glutamine in the presence of 10% fetal bovine serum and gentamicin (50 mg/L) at 37 °C, with humidified atmosphere of 5% CO2. Then compounds, which were dissolved in DMSO, were added to the wells at the final concentrations of 10^–7, 10^–6, 10^–5 and 10^–4 M. The cells were incubated with compounds for 72 h, after which cell viability was assessed using the standard MTT assay. The assay was carried out in four replicates with negative (culture medium), positive (solution of the cytotoxic drug camptothecin at a concentration of 3 mM) controls and the solvent control (DMSO). The results of the MTT assay were evaluated on a Tecan Infinite M200 PRO (Tecan Austria GmbH, Grödig, Austria) plate spectrophotometer by comparing the optical density of a formazan solution at 570 nm in the assay and control wells. The half maximal inhibitory concentrations (IC50) were calculated by AAT Bioquest-calculator (https://www.aatbio.com/tools/ic50-calculator (accessed on 14 November 2022)).
For orientation: Tetrazolium assays rely on reduction of a dye to a coloured formazan, in cell work by metabolically active cells.

The test system of a further data set is human dermal fibroblasts. The data set is described as follows: Cytotoxicity against human dermal fibroblasts (MTT assay). Format: cell-based. Particulars: Fibroblast, 72 h, read-out: IC50, Human Dermal Fibroblasts. As for the experimental part: as §2
Setting [12] is: hot plate test, rats, dose 15 mg/kg, 1 h, n.a. = inactive (p > 0.05), read-out: Latent Period Prolongation, % 1 h.
[13] abbreviates: hot plate test, rats, dose 15 mg/kg, 2 h, n.a. = inactive (p > 0.05), read-out: Latent Period Prolongation, % 2 h.

Converted amounts (≈) assume the structure as drawn. Read-outs that look alike come from different tables or passages of the source.

T2 sequence (P81908 whole entry): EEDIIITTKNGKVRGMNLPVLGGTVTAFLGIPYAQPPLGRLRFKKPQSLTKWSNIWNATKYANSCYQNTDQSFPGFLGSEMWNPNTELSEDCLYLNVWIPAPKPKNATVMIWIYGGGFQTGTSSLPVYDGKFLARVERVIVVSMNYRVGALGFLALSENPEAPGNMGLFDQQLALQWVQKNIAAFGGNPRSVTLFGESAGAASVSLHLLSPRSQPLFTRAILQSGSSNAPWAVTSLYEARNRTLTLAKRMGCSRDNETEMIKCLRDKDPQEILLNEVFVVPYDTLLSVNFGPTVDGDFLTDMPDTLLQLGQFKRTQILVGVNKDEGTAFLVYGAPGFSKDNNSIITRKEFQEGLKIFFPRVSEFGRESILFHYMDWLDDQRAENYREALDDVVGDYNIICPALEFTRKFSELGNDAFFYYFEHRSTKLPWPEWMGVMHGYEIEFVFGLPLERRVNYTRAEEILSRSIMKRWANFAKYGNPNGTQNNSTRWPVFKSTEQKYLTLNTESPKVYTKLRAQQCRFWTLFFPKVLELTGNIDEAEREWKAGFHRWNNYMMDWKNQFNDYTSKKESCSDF
T1 sequence (P22303 32-617 isoform P22303-2 limits assumed): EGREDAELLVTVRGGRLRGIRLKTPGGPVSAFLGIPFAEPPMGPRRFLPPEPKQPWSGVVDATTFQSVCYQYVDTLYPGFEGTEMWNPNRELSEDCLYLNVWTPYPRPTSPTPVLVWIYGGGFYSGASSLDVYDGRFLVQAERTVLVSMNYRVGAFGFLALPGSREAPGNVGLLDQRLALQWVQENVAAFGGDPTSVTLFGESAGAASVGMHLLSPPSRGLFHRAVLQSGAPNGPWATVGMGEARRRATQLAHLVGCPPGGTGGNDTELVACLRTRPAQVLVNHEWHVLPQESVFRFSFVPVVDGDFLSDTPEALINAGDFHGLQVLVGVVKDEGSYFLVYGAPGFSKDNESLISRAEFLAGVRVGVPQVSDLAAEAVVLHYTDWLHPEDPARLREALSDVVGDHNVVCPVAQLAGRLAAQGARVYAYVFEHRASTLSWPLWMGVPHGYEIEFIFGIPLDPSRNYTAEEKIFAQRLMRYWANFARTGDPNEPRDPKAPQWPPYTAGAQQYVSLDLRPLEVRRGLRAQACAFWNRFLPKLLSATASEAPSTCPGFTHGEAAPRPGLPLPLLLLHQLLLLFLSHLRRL
porcine liver carboxylesterase (CES, EC 3.1.1.1), sequence (Q29550 19-566): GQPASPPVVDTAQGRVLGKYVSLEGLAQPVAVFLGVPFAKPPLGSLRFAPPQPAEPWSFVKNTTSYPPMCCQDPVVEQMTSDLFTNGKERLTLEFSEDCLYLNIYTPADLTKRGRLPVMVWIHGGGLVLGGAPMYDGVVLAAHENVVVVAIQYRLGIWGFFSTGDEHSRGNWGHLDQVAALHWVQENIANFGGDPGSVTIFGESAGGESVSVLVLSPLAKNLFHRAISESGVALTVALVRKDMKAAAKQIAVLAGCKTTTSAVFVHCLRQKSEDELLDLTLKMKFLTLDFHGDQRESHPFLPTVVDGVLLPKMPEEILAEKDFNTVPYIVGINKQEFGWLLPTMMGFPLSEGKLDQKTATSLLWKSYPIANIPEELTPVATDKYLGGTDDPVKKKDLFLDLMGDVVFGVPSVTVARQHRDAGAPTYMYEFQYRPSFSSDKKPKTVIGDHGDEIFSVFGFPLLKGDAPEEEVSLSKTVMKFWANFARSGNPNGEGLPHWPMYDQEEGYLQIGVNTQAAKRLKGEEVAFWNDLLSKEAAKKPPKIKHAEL

Turning to `O=C1/C(=N\Nc2ccccc2Cl)C(C(F)(F)F)=NN1c1ccccc1` [5i, (4Z)-4-[2-(2-Chlorophenyl)hydrazinylidene]-2-phenyl-5-(trifluoromethyl)-2,4-dihydro-3H-pyrazol-3-one], the inhibition at 20 µM in [1] was 23.2 ± 1.8%; in [2], 6.3 ± 1%; in data set [3] it was 6.4 ± 1.3%. Moreover, the “ORAC-FL (TE, antioxidant activity in Trolox equivalents)” value (“ORAC-FL” for short) in data set [4] is “i.t.s”. The minimal inhibitory concentration (MIC) was over 250 µg/mL in data set [5]; over 200 µg/mL in [7]; over 200 µg/mL in data set [8]; over 200 µg/mL in data set [9]; over 200 µg/mL in data set [10]. The molecule also registered a survival at 14 days in data set [6] of 100%. Further, the change in vivo at 15 mg/kg in the data set on Sprague-Dawley (SD) rats (setting [12]) was 42%; with Sprague-Dawley (SD) rats (setting [13]), 61%.

Turning to `O=C1/C(=N\Nc2ccc(Br)cc2)C(C(F)(F)F)=NN1c1ccccc1` [5k, (4Z)-4-[2-(4-Bromophenyl)hydrazinylidene]-2-phenyl-5-(trifluoromethyl)-2,4-dihydro-3H-pyrazol-3-one], the inhibition at 20 µM in data set [1] amounted to 23.2 ± 2%; in data set [2], 5.4 ± 0.9%; in [3], 6 ± 1.1%. The “ORAC-FL” value in data set [4] is reported as “i.t.s”. The MIC is 31.2 µg/mL (≈ 75.9 µM) in data set [5]; over 200 µg/mL in [7]; over 200 µg/mL in data set [8]; over 200 µg/mL in [9]; over 200 µg/mL in data set [10]. This molecule yielded a survival at 14 days in [6] of 100%. The change in vivo at 15 mg/kg was 89% with Sprague-Dawley (SD) rats (setting [12]) and 76% in the data set on Sprague-Dawley (SD) rats (setting [13]).

For `O=C1/C(=N\Nc2ccc(Cl)cc2Cl)C(C(F)(F)C(F)(F)F)=NN1c1ccccc1` [6f, (4Z)-4-[2-(2,4-Dichlorophenyl)hydrazinylidene]-5-(pentafluoroethyl)-2-phenyl-2,4-dihydro-3H-pyrazol-3-one], the values for the inhibition at 20 µM in data set [1], in data set [2] and in data set [3] were 6.6 ± 0.9%, 3.4 ± 0.7% and 4.3 ± 0.8%, respectively. In addition, the minimum inhibitory concentration (MIC) in [5] was over 250 µg/mL; in data set [7] it was over 200 µg/mL; in data set [8], over 200 µg/mL; in data set [9], over 200 µg/mL; in data set [10], 200 µg/mL (≈ 443 µM). The molecule further gave a survival at 14 days in data set [6] of 100%. Moreover, in the data set on Sprague-Dawley (SD) rats (SD rats, dose 15 mg/kg, 1 and 2 h), the “analgesic activity in the hot plate test” value was “inactive”.

As for `CS(=O)(=O)c1ccc(N/N=C2\C(=O)N(c3ccccc3)N=C2C(F)(F)C(F)(F)F)cc1` [6h, (4Z)-4-(2-[4-(Methylsulfonyl)phenyl]hydrazinylidene)-5-(pentafluoroethyl)-2-phenyl-2,4-dihydro-3H-pyrazol-3-one], the inhibition at 20 µM was determined as 30.8 ± 2.7% in data set [1], 4.1 ± 0.8% in data set [2] and 5.2 ± 0.9% in data set [3]. In data set [4], the “ORAC-FL” value is recorded as “i.t.s”. The MIC was 250 µg/mL (≈ 543 µM) in data set [5]; over 200 µg/mL in data set [7]; over 200 µg/mL in data set [8]; over 200 µg/mL in data set [9]; over 200 µg/mL in [10]. In data set [6], this molecule returned a survival at 14 days of 100%. Moreover, the change in vivo at 15 mg/kg is 80% with Sprague-Dawley (SD) rats (setting [12]) and 98% in the data set on Sprague-Dawley (SD) rats (setting [13]).

`Cc1ccc(N/N=C2\C(=O)N(c3ccccc3)N=C2C(F)(F)C(F)(F)C(F)(F)C(F)(F)F)cc1` [8b, (4Z)-5-(Nonafluorobutyl)-4-[2-(4-methylphenyl)hydrazinylidene]-2-phenyl-2,4-dihydro-3H-pyrazol-3-one]: the inhibition at 20 µM is 12.1 ± 1.9% in [1] and 9 ± 1.4% in data set [2]. The half-maximal inhibitory concentration (IC50) in [11] was over 400 µM. Further, in [11] (n.a. = inactive), the “ABTS•+-scavenging activity, TEAC (trolox equivalent antioxidant capacity)” value stood at 0.05 ± 0.03. Further, in [5], the MIC is over 250 µg/mL. In addition, the survival at 14 days in data set [6] is 100%. The change in vivo at 15 mg/kg in the data set on Sprague-Dawley (SD) rats (1 h, read-out: Latent Period Prolongation, % 1 h) amounted to 95.2%; in the data set on Sprague-Dawley (SD) rats (2 h, read-out: Latent Period Prolongation, % 2 h), 125%.

Regarding `CC[C@@]1(O)C(=O)OCc2c1cc1n(c2=O)Cc2cc3ccccc3nc2-1` [Camptothecin, reference compound], the 50% inhibitory concentration (IC50) came out at 1.08 ± 0.98 µM in the data set with HeLa tumor cell line and 5.38 ± 0.48 µM with human dermal fibroblasts.

In the case of `COc1cccc2c1C(=O)c1c(O)c3c(c(O)c1C2=O)C[C@@](O)(C(=O)CO)C[C@@H]3O[C@H]1C[C@H](N)[C@H](O)[C@H](C)O1` [Doxorubicin, reference compound], the half-maximal inhibitory concentration (IC50) with HeLa tumor cell line (MTT, n.a. = inactive) worked out at 4.25 ± 0.55 µM; in the data set with human dermal fibroblasts (MTT, n.a. = inactive), 2.72 ± 0.26 µM.

Usually inhibition stands for the change of the read-out against control, counted positive when it falls. What is called MIC is the lowest concentration that inhibits growth of the organism. Usually IC50 stands for the concentration at which inhibition is half-maximal.
